Values of other authors, collected in patent US20190358206A1, “TOPICAL FORMULATIONS OF BIARYL HETEROCYCLIC COMPOUNDS AND METHODS OF USE THEREOF” (Melinta Subsidiary Corp., priority 2016, published 2019).

Tested on: intracellular S. aureus (including linezolid-resistant), Listeria monocytogenes and Legionella pneumophila
Conditions: cited from earlier work

In the case of `CC(=O)NC[C@H]1CN(c2ccc(-c3ccc(CNCc4cnn[nH]4)cc3)c(F)c2)C(=O)O1` [Radezolid, N-[3-(2-Fluoro-4′-{[(1H-[1,2,3]triazol-4-ylmethyl)-amino]-methyl}-biphenyl-4-yl)-2-oxo-oxazolidin-5-(S)-ylmethyl]-acetamide], the intracellular killing is given as “kills intracellular S. aureus (including linezolid-resistant), Listeria monocytogenes and Legionella pneumophila”.
